Measured values as given in ChEMBL document CHEMBL1135394, “Improvement in the selectivity and metabolic stability of the serotonin 5-HT(1A) ligand, S 15535: a series of cis- and trans-2-(arylcycloalkylamine) 1-indanols” (J Med Chem, 2002).
pKi: −log10 of the molar value.

What was measured:
[1] = target: T1, 5-hydroxytryptamine receptor 1A (Rattus norvegicus) (UniProt P19327)
T1 sequence (whole entry): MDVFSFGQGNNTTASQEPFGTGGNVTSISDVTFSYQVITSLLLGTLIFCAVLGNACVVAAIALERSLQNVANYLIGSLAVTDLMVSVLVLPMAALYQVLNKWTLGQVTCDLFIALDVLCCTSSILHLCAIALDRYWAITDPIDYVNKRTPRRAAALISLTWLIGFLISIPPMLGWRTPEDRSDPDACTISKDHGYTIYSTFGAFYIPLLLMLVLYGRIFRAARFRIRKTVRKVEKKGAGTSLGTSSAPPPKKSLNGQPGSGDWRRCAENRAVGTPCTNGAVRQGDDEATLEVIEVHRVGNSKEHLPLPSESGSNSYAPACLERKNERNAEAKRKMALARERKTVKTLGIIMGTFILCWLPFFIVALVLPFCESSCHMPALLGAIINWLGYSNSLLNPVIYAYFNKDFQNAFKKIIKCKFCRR

[2] = target: T2, 5-hydroxytryptamine receptor 1A (Homo sapiens) (UniProt P08908); experiment: Agonist efficacy of [35S]GTP-gamma-S, binding to 5-hydroxytryptamine 1A receptor compared with 5-HT; assay type: functional
T2 sequence (whole entry): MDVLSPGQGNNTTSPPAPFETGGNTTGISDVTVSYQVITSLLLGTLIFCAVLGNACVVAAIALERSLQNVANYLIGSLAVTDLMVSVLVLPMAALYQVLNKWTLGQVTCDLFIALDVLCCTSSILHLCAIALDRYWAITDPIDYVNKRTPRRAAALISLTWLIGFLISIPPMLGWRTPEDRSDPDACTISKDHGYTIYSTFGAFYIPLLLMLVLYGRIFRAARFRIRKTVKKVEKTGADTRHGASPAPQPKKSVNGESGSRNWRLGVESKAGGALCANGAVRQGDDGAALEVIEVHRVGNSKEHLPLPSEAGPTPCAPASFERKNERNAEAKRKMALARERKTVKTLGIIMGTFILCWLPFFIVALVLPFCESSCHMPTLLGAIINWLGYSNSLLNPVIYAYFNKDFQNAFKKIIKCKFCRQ

[3] = Selectivity ratio towards Alpha-1 adrenergic receptor to human 5-hydroxytryptamine 1A receptor
[4] = target: T1, 5-hydroxytryptamine receptor 1A (Rattus norvegicus); experiment: Antagonistic activity at postsynaptic 5-hydroxytryptamine 1A receptor was measured by its ability to inhibit hypothermia elicited by s.c. administration of 8-OH-DPAT in rat;ranges from (0.45-4.51); assay type: functional, organism-based
[5] = target: T1, 5-hydroxytryptamine receptor 1A (Rattus norvegicus); experiment: Antagonistic activity at postsynaptic 5-hydroxytryptamine 1A receptor was measured by its ability to inhibit hypothermia elicited by s.c. administration of 8-OH-DPAT in rat;ranges from (0.20-1.80); assay type: functional, organism-based
[6] = target: T3, Adrenergic receptor alpha-1 (Rattus norvegicus, UniProt P15823+P23944+P43140); experiment: Binding affinity at Alpha-1 adrenergic receptor by inhibition of [3H]-prazosin binding to rat cortex
T3 sequence (P15823 whole entry): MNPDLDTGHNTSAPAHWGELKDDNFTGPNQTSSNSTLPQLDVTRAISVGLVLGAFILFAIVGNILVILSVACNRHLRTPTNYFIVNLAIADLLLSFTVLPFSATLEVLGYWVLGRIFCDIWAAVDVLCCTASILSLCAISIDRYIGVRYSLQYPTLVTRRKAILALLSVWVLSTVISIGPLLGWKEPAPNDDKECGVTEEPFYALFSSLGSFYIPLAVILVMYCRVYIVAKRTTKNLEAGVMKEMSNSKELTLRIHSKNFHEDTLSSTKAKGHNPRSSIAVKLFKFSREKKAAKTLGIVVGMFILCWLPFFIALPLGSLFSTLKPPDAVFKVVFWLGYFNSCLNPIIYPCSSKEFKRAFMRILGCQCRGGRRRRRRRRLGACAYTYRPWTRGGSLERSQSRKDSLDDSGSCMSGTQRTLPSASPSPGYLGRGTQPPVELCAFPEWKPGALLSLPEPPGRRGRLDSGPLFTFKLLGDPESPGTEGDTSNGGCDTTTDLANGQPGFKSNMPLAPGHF
T3 sequence (P23944 whole entry): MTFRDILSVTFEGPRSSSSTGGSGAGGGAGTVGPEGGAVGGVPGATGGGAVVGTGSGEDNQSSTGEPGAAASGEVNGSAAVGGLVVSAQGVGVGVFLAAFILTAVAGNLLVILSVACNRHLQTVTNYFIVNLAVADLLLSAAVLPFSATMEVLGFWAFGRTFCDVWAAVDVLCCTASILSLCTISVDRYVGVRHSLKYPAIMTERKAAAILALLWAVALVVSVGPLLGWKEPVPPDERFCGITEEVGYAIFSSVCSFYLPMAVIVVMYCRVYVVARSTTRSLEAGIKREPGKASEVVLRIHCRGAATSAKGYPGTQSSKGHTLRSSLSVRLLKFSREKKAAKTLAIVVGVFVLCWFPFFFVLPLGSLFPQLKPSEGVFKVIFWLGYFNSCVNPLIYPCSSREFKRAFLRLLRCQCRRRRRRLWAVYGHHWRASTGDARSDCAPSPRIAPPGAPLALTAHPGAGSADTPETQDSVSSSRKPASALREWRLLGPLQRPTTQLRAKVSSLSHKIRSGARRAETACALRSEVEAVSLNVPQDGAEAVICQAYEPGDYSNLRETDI
T3 sequence (P43140 whole entry): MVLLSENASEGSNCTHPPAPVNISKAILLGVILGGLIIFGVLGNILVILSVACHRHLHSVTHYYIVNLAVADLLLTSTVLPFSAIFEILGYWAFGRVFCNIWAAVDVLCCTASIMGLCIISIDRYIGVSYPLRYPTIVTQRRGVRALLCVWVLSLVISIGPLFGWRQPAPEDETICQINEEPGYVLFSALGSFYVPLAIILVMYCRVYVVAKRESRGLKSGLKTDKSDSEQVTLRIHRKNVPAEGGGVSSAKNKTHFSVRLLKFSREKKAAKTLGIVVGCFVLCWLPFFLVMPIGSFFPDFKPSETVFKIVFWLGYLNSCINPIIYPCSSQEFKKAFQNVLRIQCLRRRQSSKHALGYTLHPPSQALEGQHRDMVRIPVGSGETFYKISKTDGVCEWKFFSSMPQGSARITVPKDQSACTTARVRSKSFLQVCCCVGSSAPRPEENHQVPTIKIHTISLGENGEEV

[7] = target: T4, 5-hydroxytryptamine receptor 1A (Homo sapiens, UniProt P08908); experiment: Binding affinity at human 5-hydroxytryptamine 1A receptor by inhibition of [3H]8-OH-DPAT binding in Chinese hamster ovary cell line; assay type: cell-based
T4 sequence (P08908 whole entry): T2 sequence (whole entry)

[8] = target: T1, 5-hydroxytryptamine receptor 1A (Rattus norvegicus); experiment: Antagonistic activity at postsynaptic 5-HT1A receptor was measured by its ability to inhibit hypothermia elicited by s.c. administration of 8-OH-DPAT in rat;ranges from (.26-3.52); assay type: functional, organism-based
[9] = In vitro oral metabolic bioavailability after incubation with hepatic microsomes; assay type: ADME, Liver; settings: read-out: MF
[10] = target: T1, 5-hydroxytryptamine receptor 1A (Rattus norvegicus); experiment: Antagonistic activity at postsynaptic 5-hydroxytryptamine 1A receptor was measured by its ability to inhibit hypothermia elicited by s.c. administration of 8-OH-DPAT in rat;ranges from (0.50-5.30); assay type: functional, organism-based
[11] = target: T1, 5-hydroxytryptamine receptor 1A (Rattus norvegicus); experiment: Antagonistic activity at postsynaptic 5-hydroxytryptamine 1A receptor was measured by its ability to inhibit hypothermia elicited by s.c. administration of 8-OH-DPAT in rat;ranges from (2.20-30.5); assay type: functional, organism-based
[12] = target: T1, 5-hydroxytryptamine receptor 1A (Rattus norvegicus); experiment: Antagonistic activity at postsynaptic 5-hydroxytryptamine 1A receptor was measured by its ability to inhibit hypothermia elicited by s.c. administration of 8-OH-DPAT in rat;ranges from (0.40-4); assay type: functional, organism-based
[13] = target: T1, 5-hydroxytryptamine receptor 1A (Rattus norvegicus); experiment: Antagonistic activity at postsynaptic 5-hydroxytryptamine 1A receptor was measured by its ability to inhibit hypothermia elicited by s.c. administration of 8-OH-DPAT in rat;ranges from (0.20-1.60); assay type: functional, organism-based
[14] = target: T1, 5-hydroxytryptamine receptor 1A (Rattus norvegicus); experiment: Antagonistic activity at postsynaptic 5-hydroxytryptamine 1A receptor was measured by its ability to inhibit hypothermia elicited by s.c. administration of 8-OH-DPAT in rat;ranges is not computable; assay type: functional, organism-based

SMILES	Ratio [3]	Log Ki [6]	pKi [7]	Fh [9] [%]	further results
COc1ccc2c(c1)C[C@@H](N1CCN(c3cccc4c3OCCO4)CC1)[C@@H]2O (racemic)	224				ID50 [1]: 0.72 mg/kg; Efficacy [2]: 21%
O[C@@H]1c2ccc(F)cc2C[C@H]1N1CCN(c2cccc3c2OCCO3)CC1 (racemic)	562				ID50 [4]: 1.42 mg/kg
COc1ccc2c(c1)[C@@H](O)[C@H](N1CCC(c3cccc4c3OCCO4)CC1)C2 (relative stereo)	55	-7.22	8.96		ID50 [5]: 0.6 mg/kg
O[C@@H]1c2ccccc2C[C@H]1N1CCN(c2cccc3c2OCCO3)CC1 (relative stereo)	575	-6.03	8.79	21	ID50 [8]: 0.96 mg/kg; Efficacy [2]: 52%
O[C@@H]1c2ccc(F)cc2C[C@H]1N1CC=C(c2cccc3c2OCCO3)CC1 (relative stereo)	128	-6.96	9.07	8	ID50 [10]: 1.7 mg/kg
O=[N+]([O-])c1ccc2c(c1)[C@@H](O)[C@H](N1CCC(c3cccc4c3OCCO4)CC1)C2 (relative stereo)	389	-6.95	9.54	22	ID50 [11]: 8.1 mg/kg
O[C@@H]1c2ccccc2C[C@H]1N1CC=C(c2cccc3c2OCCO3)CC1 (relative stereo)	120	-7	9.08	4	ID50 [12]: 1.3 mg/kg
O[C@@H]1c2ccccc2C[C@H]1N1CCC(c2cccc3c2OCCO3)CC1 (relative stereo)	112	-7.1	9.15	7	ID50 [13]: 0.5 mg/kg
O[C@@H]1c2cc(F)c(F)cc2C[C@H]1N1CCN(c2cccc3c2OCCO3)CC1 (relative stereo)	332	-6.15	8.67	51	ID50 [14]: 2.5 mg/kg
